Assay results reported in patent publication US20120207729A1, “SUBSTITUTED BENZOAZOLE PDE4 INHIBITORS FOR TREATING PULMONARY AND CARDIOVASCULAR DISORDERS” (DECODE GENETICS EHF, priority 2007, published 2012).

Key:
human PDE4B = human PDE4B (Homo sapiens, UniProt Q07343); experiment: In-vitro real-time enzyme-coupled spectrophotometric assay for PDE4 enzymes; assay type: biochemical; conditions: NADH-coupled assay, absorbance at 340 nm, read-out: IC50 for human PDE4B isozyme
Procedure: (§1) In-vitro assay for PDE4 enzymes. The in-vitro activity of PDE4 enzymes and the in-vitro potency of therapeutic agents described in the present invention was measured using a real-time, enzyme-coupled spectrophotometric assay. By using three different coupling enzymes, the product of the PDE4 reaction is coupled to the oxidation of the reduced form β-nicotinamide adenine dinucleotide (NADH), which dissipation can be monitored spectrophotmetrically at […].
(§2) Assay description. Buffer A containing 50 mM Tris, pH 8.0, 16 mM MgCl2 and 80 mM KCl is prepared and stored at room temperature. Buffer B containing 50 mM Tris, pH 8.0 is prepared and stored at room temperature. Stock solutions of the following reagents are prepared in Buffer B and stored at −20° C.: Adenosine-5′-triphosphate (ATP), cyclic adenosine-5′-monophosphate (cAMP), phosphoenolpyruvate (PEP) and NADH. An assay mix is prepared by mixing Buffer A, […] (TCEP), ATP, PEP, NADH, myokinase (MK), pyruvate kinase (PK), lactate dehydroganese (LDH) and PDE4 to a final volume of 20 mL, which is enough for a single 96-well assay plate. Assay mix (180 μL) and test article (10 μL) in 1:1 DMSO/H2O mixture is pre-incubated at room temperature for 10 min. The enzymatic reaction is initiated by addition of cAMP (10 μL). Final concentration of all components in the assay (200 μL/well) are as follows: 10 mM MgCl2, 50 mM KCl, 5 mM TCEP, 2.5% DMSO, 0.4 mM NADH, 1 mM PEP, 0.04 mM ATP, 5 units MK, 1 unit PK, 1 unit LDH and appropriate amount of PDE4. Reaction progress curves are monitored in a plate reader capable of measuring light absorbance at 340 nm. A decrease in light absorbance at 340 nm is due to oxidation of NADH. Positive controls containing no test article and negative controls containing no test article and no cAMP are included on every assay plate. Reaction rates are determined from the slopes of the linear portions of the progress curves. All data is percent normalized with respect to controls and presented as percent inhibition. Compounds BB-01, BB-02, BB-03, BB-04, BB-05, BB-08, BB-09 gave IC50<5 uM for human PDE4D and PDE4B isozymes.

human PDE4D = human PDE4D (Homo sapiens, UniProt Q08499); experiment: as above; assay type: biochemical; conditions: NADH-coupled assay, absorbance at 340 nm, read-out: IC50 for human PDE4D isozyme
Procedure: as §1, §2

Sequence of human PDE4B (Q07343 whole entry): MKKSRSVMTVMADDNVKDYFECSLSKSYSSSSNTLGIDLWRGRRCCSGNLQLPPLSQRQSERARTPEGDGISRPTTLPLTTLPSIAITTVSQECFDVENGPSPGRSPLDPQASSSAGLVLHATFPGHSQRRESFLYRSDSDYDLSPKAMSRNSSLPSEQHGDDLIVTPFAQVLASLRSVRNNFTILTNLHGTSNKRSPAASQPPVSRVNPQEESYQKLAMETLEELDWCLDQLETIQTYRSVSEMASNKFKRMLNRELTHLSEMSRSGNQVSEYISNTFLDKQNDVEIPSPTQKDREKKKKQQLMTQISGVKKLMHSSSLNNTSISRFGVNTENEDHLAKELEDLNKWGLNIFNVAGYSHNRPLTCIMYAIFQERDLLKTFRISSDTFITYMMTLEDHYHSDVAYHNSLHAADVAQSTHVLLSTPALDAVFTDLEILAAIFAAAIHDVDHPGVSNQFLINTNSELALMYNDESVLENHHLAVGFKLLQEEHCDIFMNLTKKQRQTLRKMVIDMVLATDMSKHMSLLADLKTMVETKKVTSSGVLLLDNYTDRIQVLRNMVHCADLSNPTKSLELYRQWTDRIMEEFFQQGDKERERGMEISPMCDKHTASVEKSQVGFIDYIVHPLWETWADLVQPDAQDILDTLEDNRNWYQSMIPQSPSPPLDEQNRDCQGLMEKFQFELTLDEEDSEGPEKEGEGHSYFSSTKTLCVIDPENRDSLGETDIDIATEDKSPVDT
Sequence of human PDE4D (Q08499 whole entry): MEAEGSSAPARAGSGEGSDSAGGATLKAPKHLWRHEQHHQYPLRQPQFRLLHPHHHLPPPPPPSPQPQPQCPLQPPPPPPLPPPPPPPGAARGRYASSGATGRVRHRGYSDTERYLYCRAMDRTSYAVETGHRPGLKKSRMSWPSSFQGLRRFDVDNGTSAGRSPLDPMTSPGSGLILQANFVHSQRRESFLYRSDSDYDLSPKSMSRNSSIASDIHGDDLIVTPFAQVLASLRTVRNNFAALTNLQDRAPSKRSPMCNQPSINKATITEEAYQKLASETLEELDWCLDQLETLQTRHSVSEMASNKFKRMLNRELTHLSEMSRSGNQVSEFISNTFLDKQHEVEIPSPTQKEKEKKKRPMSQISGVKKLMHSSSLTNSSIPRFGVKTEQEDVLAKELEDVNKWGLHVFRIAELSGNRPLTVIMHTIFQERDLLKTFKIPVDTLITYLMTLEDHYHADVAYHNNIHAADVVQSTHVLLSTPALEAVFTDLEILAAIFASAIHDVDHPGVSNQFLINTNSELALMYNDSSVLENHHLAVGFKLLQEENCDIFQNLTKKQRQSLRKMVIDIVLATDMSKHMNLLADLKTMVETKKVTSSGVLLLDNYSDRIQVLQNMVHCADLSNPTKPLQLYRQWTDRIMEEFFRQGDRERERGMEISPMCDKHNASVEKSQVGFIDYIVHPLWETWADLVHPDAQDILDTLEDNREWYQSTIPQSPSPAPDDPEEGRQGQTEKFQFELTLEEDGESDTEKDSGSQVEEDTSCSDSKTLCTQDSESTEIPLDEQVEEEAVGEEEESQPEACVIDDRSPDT

SMILES	IC50 (human PDE4B)	IC50 (human PDE4D)
O=C(O)C1CCN1c1ccc(Cc2cc3scnc3c(-c3cccc(Cl)c3)c2F)cn1 (racemic) [BB-01, 1-{5-[4-(3-chloro-phenyl)-5-fluorobenzothiazol-6-ylmethyl]-pyridin-2-yl}-azetidine-2-carboxylic acid]	< 5 µM	< 5 µM
O=C(O)[C@@H]1CCCN1c1ccc(Cc2cc3scnc3c(-c3cccc(Cl)c3)c2F)cn1 [BB-03, (S)-1-{5-[4-(3-chloro-phenyl)-5-fluoro-benzothiazol-6-ylmethyl]-pyridin-2-yl}-pyrrolidine-2-carboxylic acid]	< 5 µM	< 5 µM
O=C(O)[C@@H]1CCN1c1ccc(Cc2cc3scnc3c(-c3cccc(Cl)c3)c2F)cn1 [BB-04, (S)-1-{5-[4-(3-chloro-phenyl)-5-fluoro-benzothiazol-6-ylmethyl]-pyridin-2-yl}-azetidine-2-carboxylic acid]	< 5 µM	< 5 µM

Next, values leading:

IC50 (human PDE4B)	IC50 (human PDE4D)	SMILES
< 5 µM	< 5 µM	O=C(O)[C@H]1CCN1c1ccc(Cc2cc3scnc3c(-c3cccc(Cl)c3)c2F)cn1 [BB-05, (R)-1-{5-[4-(3-chloro-phenyl)-5-fluoro-benzothiazol-6-ylmethyl]-pyridin-2-yl}-azetidine-2-carboxylic acid]
< 5 µM	< 5 µM	Cc1nc2c(-c3cccc(Cl)c3)cc(Cc3ccc(N4CC[C@H]4C(=O)O)nc3)cc2s1 [BB-08, (S)-1-{5-[4-(3-chloro-phenyl)-2-methyl-benzothiazol-6-ylmethyl]-pyridin-2-yl}-azetidine-2-carboxylic acid]
< 5 µM	< 5 µM	Cc1nc2c(-c3cccc(Cl)c3)cc(Cc3ccc(N4CC[C@@H]4C(=O)O)nc3)cc2s1 [BB-09, (R)-1-{5-[4-(3-chloro-phenyl)-2-methyl-benzothiazol-6-ylmethyl]-pyridin-2-yl}-azetidine-2-carboxylic acid]
